Positions count from the first letter of the chain named.
biological target: T1, monkey chymase (Macaca fascicularis, UniProt P56435); assay: Monkey chymase inhibitory activity (in vitro, angiotensin I substrate); format: biochemical; conditions: Monkey Chymase Inhibition (IC50:nM), chymase purified from monkey cheek pouch and stomach; substrate angiotensin I; 37° C.
T1 construct: chymase was extracted from homogenized monkey cheek pouch and stomach; from tissue; host or cells: monkey cheek pouch and stomach
T1 sequence (P56435 22-247): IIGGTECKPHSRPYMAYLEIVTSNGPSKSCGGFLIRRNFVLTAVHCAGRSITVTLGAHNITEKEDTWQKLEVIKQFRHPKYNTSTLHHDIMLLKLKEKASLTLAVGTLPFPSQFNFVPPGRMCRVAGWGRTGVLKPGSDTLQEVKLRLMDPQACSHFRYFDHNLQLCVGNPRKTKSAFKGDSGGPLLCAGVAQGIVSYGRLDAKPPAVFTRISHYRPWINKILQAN
Protocol: (§1) The inhibitory activities of the compounds on monkey chymase and human chymase were tested in vitro. The test compounds are as shown by Compound Nos. in Tables 13 and 14.
Preparation of Monkey Chymase
Chymase was purified from monkey cheek pouch and stomach in the following manner.
Briefly, chymase was extracted from homogenized monkey cheek pouch and stomach with 0.01 mol/1000 ml sodium phosphate buffer, pH 7.4, containing 2 mol/1000 ml KCl and 0.1% Nonidet P-40 (Amresco Inc.). The solution containing chymase was applied to a heparin actigel column, and the chymase-rich fractions were collected.
(§2) Measurement of Chymase Inhibitory Activity (In Vitro Assay)
(§3) Briefly, the purified monkey or human chymase was diluted to an appropriate concentration with 0.01 mol/1000 ml sodium phosphate buffer, pH 7.4, containing 2 mol/1000 ml KCl and 0.1% Nonidet P-40 and used as enzyme solution. Angiotensin I (Peptide Institute Inc.) was diluted with water to 5 mg/ml and used as substrate solution. Test compounds were serially diluted with 10% DMSO. […] After pre-incubation of the mixture at 37° C., 20 μl of the substrate solution was added to the enzyme-test compound mixture and the new mixture was incubated at 37° C. Fifty μl of 30% trichloroacetic acid solution was finally added to stop the enzymatic reaction.
(§4) The amount of L-His-L-Leu was measured as angiotensin II produced by the enzymatic reaction. Briefly, 10 μl of the reaction mixture and 10 μl of 1% orthophthalaldehyde solution dissolved in methanol were mixed with 100 μl of 2 mol/1000 ml NaOH and kept at room temperature. The reaction was then stopped by adding 10 μl of 6 mol/1000 ml HCl.

Row | Structure (SMILES) | IC50 [nM]
1 | CC(C)[C@H](NC(=O)c1ccncc1)C(=O)N1CCC[C@H]1C(=O)NC(Cc1csc2ccccc12)C(=O)C(F)(F)F (some centres unmarked) [I-A-66] | 49

same assay, conditions: chymase purified from monkey cheek pouch and stomach; substrate angiotensin I; 37° C.; read-out: Monkey Chymase Inhibition (IC50:nM)

Row | Structure (SMILES) | IC50 [nM]
2 | CC(C)[C@H](NC(=O)c1ccoc1)C(=O)N1CCC[C@H]1C(=O)NC(Cc1ccc2ccccc2c1)C(=O)C(F)(F)F (some centres unmarked) [I-A-63] | 150
3 | Cc1noc(C)c1C(=O)N[C@H](C(=O)N1CCC[C@H]1C(=O)NC(Cc1ccccc1C(F)(F)F)C(=O)C(F)(F)F)C(C)C (some centres unmarked) [I-A-46] | 170
4 | Cc1noc(C)c1C(=O)N[C@H](C(=O)N1CCC[C@H]1C(=O)NC(Cc1ccc(I)cc1)C(=O)C(F)(F)F)C(C)C (some centres unmarked) [I-A-42] | 130
5 | Cc1noc(C)c1C(=O)N[C@@H](Cc1ccccc1)C(=O)N1CCC[C@H]1C(=O)NC(Cc1ccccc1)C(=O)C(F)(F)F (some centres unmarked) [I-A-14] | 59
6 | Cc1noc(C)c1C(=O)N[C@H](C(=O)N1CCC[C@H]1C(=O)NC(Cc1ccccc1)C(=O)C(F)(F)F)C(C)C (some centres unmarked) [I-A-26] | 44
7 | Cc1noc(C)c1C(=O)N[C@H](C(=O)N1CCC[C@H]1C(=O)NC(Cc1ccc(O)cc1)C(=O)C(F)(F)F)C(C)C (some centres unmarked) [I-A-28] | 54
8 | O=C(O)Cn1c(=O)ccn(CC(=O)N[C@@H](CC2CCCCC2)C(=O)N2CCC[C@H]2C(=O)NC(Cc2ccccc2)C(=O)C(F)(F)F)c1=O (some centres unmarked) [I-A-91] | 150
9 | Cc1nc(C)c(C(=O)N[C@H](C(=O)N2CCC[C@H]2C(=O)NC(Cc2csc3ccccc23)C(=O)C(F)(F)F)C(C)C)o1 (some centres unmarked) [I-A-69] | 98
10 | Cc1cccc(CC(NC(=O)[C@@H]2CCCN2C(=O)[C@@H](NC(=O)c2c(C)noc2C)C(C)C)C(=O)C(F)(F)F)c1 (some centres unmarked) [I-A-40] | 120
11 | CC(C)[C@H](NC(=O)c1nsc(Cl)c1Cl)C(=O)N1CCC[C@H]1C(=O)NC(Cc1csc2ccccc12)C(=O)C(F)(F)F (some centres unmarked) [I-A-75] | 380
12 | CC(C)[C@H](NC(=O)CN1CCN(CC(=O)O)C1=O)C(=O)N1CCC[C@H]1C(=O)NC(Cc1cc2ccccc2s1)C(=O)C(F)(F)F (some centres unmarked) [I-A-85] | 75
13 | CC[C@H](NC(=O)c1snnc1C)C(=O)N1CCC[C@H]1C(=O)NC(Cc1csc2ccccc12)C(=O)C(F)(F)F (some centres unmarked) [I-A-21] | 19
14 | Cc1noc(C)c1C(=O)N[C@H](C(=O)N1CCC[C@H]1C(=O)NC(Cc1cccc(Cl)c1)C(=O)C(F)(F)F)C(C)C (some centres unmarked) [I-A-38] | 110
15 | Cc1nnsc1C(=O)N[C@H](C(=O)N1CCC[C@H]1C(=O)NC(Cc1ccc2c(c1)CCC2)C(=O)C(F)(F)F)C(C)C (some centres unmarked) [I-A-24] | 150
16 | Cc1noc(C)c1C(=O)N[C@H](C(=O)N1CCC[C@H]1C(=O)NC(Cc1ccc2c(c1)CCC2)C(=O)C(F)(F)F)C(C)C (some centres unmarked) [I-A-18] | 220
17 | CC(C)[C@H](NC(=O)c1cccnc1Oc1ccccc1)C(=O)N1CCC[C@H]1C(=O)NC(Cc1csc2ccccc12)C(=O)C(F)(F)F (some centres unmarked) [I-A-73] | 300
18 | Cc1noc(C)c1C(=O)N[C@H](C(=O)N1CCC[C@H]1C(=O)NC(Cc1cccs1)C(=O)C(F)(F)F)C(C)C (some centres unmarked) [I-A-17] | 140
19 | CC(C)[C@H](NC(=O)c1onc2cccnc12)C(=O)N1CCC[C@H]1C(=O)NC(Cc1csc2ccccc12)C(=O)C(F)(F)F (some centres unmarked) [I-A-71] | 140

Row | Structure (SMILES) | IC50 [nM]
20 | Cc1noc(C)c1C(=O)N[C@H](C(=O)N1CCC[C@H]1C(=O)NC(Cc1ccccc1F)C(=O)C(F)(F)F)C(C)C (some centres unmarked) [I-A-27] | 51
21 | CC(C)[C@H](NC(=O)c1onc2ccccc12)C(=O)N1CCC[C@H]1C(=O)NC(Cc1csc2ccccc12)C(=O)C(F)(F)F (some centres unmarked) [I-A-59] | 250
22 | Cc1noc(C)c1C(=O)N[C@H](C(=O)N1CCC[C@H]1C(=O)NC(Cc1ccc(Cl)cc1)C(=O)C(F)(F)F)C(C)C (some centres unmarked) [I-A-43] | 140
23 | CC(C)[C@H](NC(=O)c1snnc1-c1ccccc1)C(=O)N1CCC[C@H]1C(=O)NC(Cc1csc2ccccc12)C(=O)C(F)(F)F (some centres unmarked) [I-A-68] | 27
24 | Cc1noc(C)c1C(=O)N[C@H](C(=O)N1CCC[C@H]1C(=O)NC(Cc1ccccc1Cl)C(=O)C(F)(F)F)C(C)C (some centres unmarked) [I-A-39] | 120
25 | Cc1noc(C)c1C(=O)N[C@H](C(=O)N1CCC[C@H]1C(=O)NC(Cc1cccc2ccccc12)C(=O)C(F)(F)F)C(C)C (some centres unmarked) [I-A-15] | 82
26 | CC(C)[C@H](NC(=O)c1ccccn1)C(=O)N1CCC[C@H]1C(=O)NC(Cc1csc2ccccc12)C(=O)C(F)(F)F (some centres unmarked) [I-A-67] | 94
27 | CC[C@H](NC(=O)c1snnc1C)C(=O)N1CCC[C@H]1C(=O)NC(Cc1ccc2ccccc2c1)C(=O)C(F)(F)F (some centres unmarked) [I-A-23] | 50
28 | Cc1ccc(CC(NC(=O)[C@@H]2CCCN2C(=O)[C@@H](NC(=O)c2c(C)noc2C)C(C)C)C(=O)C(F)(F)F)cc1 (some centres unmarked) [I-A-35] | 80
29 | CC(C)[C@H](NC(=O)Cn1ccc(=O)n(CC(=O)OC(C)(C)C)c1=O)C(=O)N1CCC[C@H]1C(=O)NC(Cc1ccc(Cl)cc1)C(=O)C(F)(F)F (some centres unmarked) [I-A-90] | 280
30 | Cc1nc2c(C(=O)N[C@H](C(=O)N3CCC[C@H]3C(=O)NC(Cc3csc4ccccc34)C(=O)C(F)(F)F)C(C)C)cccc2o1 (some centres unmarked) [I-A-60] | 430
31 | CC(C)[C@H](NC(=O)CN1CCN(CC(=O)OC(C)(C)C)C1=O)C(=O)N1CCC[C@H]1C(=O)NC(Cc1cc2ccccc2s1)C(=O)C(F)(F)F (some centres unmarked) [I-A-86] | 210
32 | Cc1cn(CC(=O)N[C@H](C(=O)N2CCC[C@H]2C(=O)NC(Cc2cc3ccccc3s2)C(=O)C(F)(F)F)C(C)C)c(=O)n(Cc2ccccc2)c1=O (some centres unmarked) [I-A-93] | 200
33 | CC(C)[C@H](NC(=O)Cn1ccc(=O)n(CC(=O)O)c1=O)C(=O)N1CCC[C@H]1C(=O)NC(Cc1ccc(Cl)cc1)C(=O)C(F)(F)F (some centres unmarked) [I-A-89] | 150
34 | CC(C)[C@H](NC(=O)CN1CCN(CC(=O)O)C1=O)C(=O)N1CCC[C@H]1C(=O)NC(Cc1ccc2ccccc2c1)C(=O)C(F)(F)F (some centres unmarked) [I-A-83] | 61
35 | Cc1nc(C)c(C(=O)N[C@H](C(=O)N2CCC[C@H]2C(=O)NC(Cc2csc3ccccc23)C(=O)C(F)(F)F)C(C)C)s1 (some centres unmarked) [I-A-65] | 37
36 | CC(C)(C)OC(=O)Cn1c(=O)ccn(CC(=O)N[C@@H](CC2CCCCC2)C(=O)N2CCC[C@H]2C(=O)NC(Cc2ccccc2)C(=O)C(F)(F)F)c1=O (some centres unmarked) [I-A-92] | 860
37 | CC(C)[C@H](NC(=O)c1ccc2snnc2c1)C(=O)N1CCC[C@H]1C(=O)NC(Cc1csc2ccccc12)C(=O)C(F)(F)F (some centres unmarked) [I-A-55] | 63

biological target: T2, human chymase (Homo sapiens, UniProt P23946); assay: Human chymase inhibitory activity (in vitro, angiotensin I substrate); format: biochemical; conditions: recombinant human chymase (COS7 cells); substrate angiotensin I; 37° C.; read-out: Human Chymase Inhibition (IC50:nM)
T2 construct: made in house; host or cells: COS7 cells (transient transfection)
T2 sequence (P23946 22-247): T1 sequence (P56435 22-247) with S29F, V44A, K63E, Y159D, L201S, K221Q
Protocol: as §1
Preparation of Human Chymase
Human chymase was produced in mammalian cells using a recombinant DNA technique.
Construction of a human prochymase expression plasmid was performed in the following manner. Briefly, single stranded cDNA was synthesized from human heart mRNA (Clontech Laboratories, Inc.). Polymerase chain reaction amplification was carried out using the cDNA as a template and appropriate pairs of primers. The primer sequences were determined based on the human preprochymase. The amplified product was cloned into the plasmid pUC18, and then recloned into the plasmid pBluescript II KS(+) (Stratagene). Finally, the DNA fragment carrying the entire protein-coding sequences of the human preprochymase was inserted to a transient expression vector by the usual method to yield the human prochymase expression plasmid.
Transfection of COS7 cells with the human prochymase expression plasmid was carried out using the FuGene™ 6 transfection reagent (Boehringer Mannheim). About 7 hours after exposure to DNA, the culture medium was changed to a serum-free one. The culture supernatant was collected after 2 days culture.
Human prochymase was purified from the culture supernatant using a heparin actigel column as described above in the preparation of monkey chymase.
In order to produce active chymase, the human prochymase was incubated with dipeptidylpeptidase I (Sigma). The resultant active human chymase was purified using a heparin actigel column as described above. The active human chymase was eluted with 0.01 mol/1000 ml sodium phosphate buffer pH 7.4 containing 2 mol/1000 ml NaCl.
as §2
as §3, with “The chymase inhibitory activities of compounds I-A of this invention were measured according to the following method. Briefly,” for “Briefly,”
as §4, with “HCl. Finally, the fluorescence induced by the reaction was measured using in a photometer with an excitation wavelength of 355 nm and an emission wavelength of 460 nm. Chymase inhibitory activities of test compounds were expressed as 50% inhibitory concentration (IC50).” for “HCl.”

Row | Structure (SMILES) | IC50 [nM]
38 | CC(C)[C@H](NC(=O)c1ccoc1)C(=O)N1CCC[C@H]1C(=O)NC(Cc1ccc2ccccc2c1)C(=O)C(F)(F)F (some centres unmarked) [I-A-63] | 92

From patent US6852744B2, “Pyrrolidine derivatives and their use as chymase inhibitor” (Dainippon Pharmaceutical Co., Ltd., priority 2000, dated 2005)
